Like-named read-outs stand apart in the source and are kept apart here.
Columns and labels:
[1] = system: MDA-MB-231 breast tumor cells; experiment: 3D HuBiogel mini-tumor growth, calcein-AM live imaging; assay type: cell-based, human; details: MDA-MB-231, calcein AM live imaging
Protocol: Viable mini-tumors (1 mm in size) of MDA-MB-231 breast tumor cells were generated using the three-dimensional human Biogel culture system from Vivo Biosciences (Birmingham, AL, USA). Accordingly, 20,000 cells were mixed with HuBiogel beads and cultivated in rotary bioreactors for 3 days. Live cell imaging was performed using Calcein- acetoxymethyl (calcein-AM) staining.

Hs578t cells = experiment: Tcf transcriptional activity, Super8XTOPFlash luciferase reporter; assay type: cell-based, human; details: 24 h
Protocol: Tcf transcriptional activity was measured in Hs578t cells. Cells were seeded in 24-well tissue culture treated plates. After 24 h of incubation, cells were transiently transfected with 0.1 µg of Promega β-galactosidase-expressing vector and 0.1 µg of Super8XTOPFlash construct, which was kindly provided by Randall T. Moon from the University of Washington (Seattle, WA, USA). After 24 h of transfection, cells were treated with compound and incubated for an additional 24 h. Cells were lysed, and luciferase and β-galactosidase activities were measured using assay systems from Promega (Madison, WI, USA), following the manufacturer’s instructions. Luciferase activity was normalized to β-galactosidase activity.

[2] = system: cGMP PDE in MDA-MB-231 whole cell lysate; experiment: cGMP hydrolysis in whole cell lysate, IMAP assay; assay type: biochemical, human; details: 100 µM
Protocol: (§1) PDE activity was measured using the Molecular Devices (San Diego, CA, USA) IMAP fluorescence polarization assay as previously described. Recombinant PDE5 was purchased from BPS Biosciences (San Diego, CA, USA).

[3] = system: cGMP PDE in SKBr3 whole cell lysate; experiment: cGMP hydrolysis in whole cell lysate, IMAP assay; assay type: biochemical, human; details: 100 µM
Protocol: as §1

SKBr3 cells = experiment: APO-BrdU TUNEL assay (DNA fragmentation), flow cytometry; assay type: cell-based, human; details: 24 h
Protocol: A terminal deoxynucleotidyl transferase dUTP nick end labeling (TUNEL) assay was performed in SKBr3 cells using the Invitrogen APO-BrdU TUNEL Assay (Waltham, MA, USA) according to the manufacturer’s protocol, and fluorescence was measured using a Guava EasyCyte (Hayward, CA, USA) flow cytometry system. First, 10 cm tissue culture treated dishes were seeded at a density of 2,000,000 cells per dish and incubated at […] for 24 h prior to drug treatment. After treatment, cells were incubated for 24 h and then collected and fixed with 4% paraformaldehyde for 15 min on ice, washed with phosphate buffered saline (PBS), and incubated in 70% ethanol at −20 °C for 4–24 h prior to assay.

purified ovine COX-2 = molecular target: T1, purified ovine COX-2 (Ovis aries, UniProt P79208); experiment: COX-2 colorimetric activity assay (Cayman kit); assay type: biochemical; details: purified enzyme
T1 construct: purchased Cayman Chemical Company
T1 sequence (P79208 17-603): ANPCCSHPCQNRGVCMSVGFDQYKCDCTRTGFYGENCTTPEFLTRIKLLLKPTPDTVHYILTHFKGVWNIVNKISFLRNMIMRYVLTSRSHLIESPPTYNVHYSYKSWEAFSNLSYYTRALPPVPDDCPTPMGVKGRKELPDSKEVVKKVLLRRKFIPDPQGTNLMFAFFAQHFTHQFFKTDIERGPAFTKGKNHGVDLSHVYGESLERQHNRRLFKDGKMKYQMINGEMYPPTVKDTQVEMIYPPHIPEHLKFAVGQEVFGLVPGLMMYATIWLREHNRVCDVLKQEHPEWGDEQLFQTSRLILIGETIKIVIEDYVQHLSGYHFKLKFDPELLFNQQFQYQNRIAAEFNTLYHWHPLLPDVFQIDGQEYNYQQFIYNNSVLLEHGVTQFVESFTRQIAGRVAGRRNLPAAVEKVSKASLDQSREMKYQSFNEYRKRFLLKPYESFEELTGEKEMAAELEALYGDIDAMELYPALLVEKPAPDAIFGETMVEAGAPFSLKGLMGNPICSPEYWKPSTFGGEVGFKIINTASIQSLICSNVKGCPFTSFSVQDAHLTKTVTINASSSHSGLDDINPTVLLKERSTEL
Protocol: (§2) COX-1 and COX-2 activities were measured using purified ovine COX-1 and COX-2 with colorimetric assay kits obtained from Cayman Chemical Company (Ann Arbor, MI, USA) according to the manufacturer’s protocol. After the addition of arachidonic acid and incubation at 25 °C for 5 min, COX activity was determined by measuring absorbance at 590 nm.

MDA-MB-231 cells = experiment: Intracellular cGMP levels; assay type: cell-based, human; details: intact MDA-MB-231, 30 min, concentrations comparable with growth IC50
Protocol: Intracellular levels of cGMP were measured in MDA-MB-231 cells after 30 min of drug treatment, as previously described.

[4] = system: MNU-induced mammary tumors; experiment: MNU model of mammary carcinogenesis; assay type: in vivo; details: for reduction in tumor incidence compared to vehicle control / reduction in tumor multiplicity compared to vehicle control: 126 days after MNU
Protocol: In vivo efficacy was evaluated using the N-methyl-N-nitrosourea (MNU) model of mammary carcinogenesis, as previously described. Briefly, female Sprague-Dawley rats were obtained from Envigo (formerly Harlan Sprague-Dawley, Inc.) (Indianapolis, IN, USA) at 28 days of age and placed on a Teklad 4% fat diet on the day of arrival. Within one week of arrival, rats were randomly assigned to groups (15 rats/group), ear marked for identification, and weighed to ensure statistically similar average body weights per group. At 50 days of age, rats received one IV injection of MNU (75 mg/kg) via the jugular vein. Rats were administered 800 or 1200 ppm of SSA or vehicle control in diet beginning 3 days after MNU administration. Rats were weighed once per week, palpated for mammary tumors twice per week, and checked daily for signs of toxicity. The study was terminated at 126 days after MNU administration. All mammary tumors were weighed when removed at necropsy, weighed, and processed for histological classification and analysis. The protocol used for this study was approved by the University of Alabama at Birmingham (UAB) IACUC where the study was performed.

[5] = Plasma levels after dietary feeding; assay type: in vivo, Sprague-Dawley rats; details: diet containing 1000, 2000, or 3000 ppm
[6] = system: MDA-MB-231 breast cancer cells; experiment: Western blotting of phospho-VASP Ser239, cyclin D1, survivin; assay type: cell-based, human; details: 7.5 µM
Protocol: All antibodies were obtained from Cell Signaling Technologies (Danvers, MA, USA). Cells were harvested and vortexed in ice cold lysis buffer containing 20 mM tris acetate, 5mM magnesium acetate, 1 mM ethylene glycol-bis(β-aminoethyl ether)-N,N,N′,N′-tetraacetic acid (EGTA), 0.8% Triton X-100, 50 mM sodium fluoride, 1.25 mM sodium vanadate, and protease inhibitor cocktail at pH 7.4. Lysates were centrifuged at 10,000× g for 10 min at 4 °C. Protein contents were determined using the Thermo/Pierce (Waltham, MA, USA) bicinchoninic acid (BCA) protein assay following the manufacturer’s specifications.
Proteins (15 µg) from lysed cells were separated by sodium dodecyl sulfate polyacrylamide gel electrophoresis (SDS-PAGE) in a 12% polyacrylamide gel followed by electrophoretic transfer to a nitrocellulose membrane. The membranes were blocked with 5% nonfat dry milk in tris-buffered saline (TBS) containing 0.05% Tween-20. Membranes were incubated with primary antibody at 4 °C overnight followed by incubation with secondary antibody conjugated to horseradish peroxidase for 2 h at room temperature. Protein bands were visualized using Millipore Immobilon enhanced chemiluminescence (ECL) substrate on HyBlot CL autoradiography film.

MCF7 cells = experiment: Caspase 3/7 Glo assay; assay type: cell-based, human; details: MCF7, 6 h treatment
Protocol: (§3) Caspase activation was measured using Promega’s Caspase 3/7 Glo Assay following the manufacturer’s specifications. First, 96-well tissue culture treated microtiter plates were seeded at a density of 10,000 cells per well and incubated at 37 °C for 24 h prior to drug treatment. After treatment, plates were incubated 6 h prior to assay.

[7] = system: Hs578t, MDA-MB-231, SKBr3, and ZR75-1 cells; experiment: Caspase 3/7 Glo assay; assay type: cell-based, human; details: 6 h treatment; range over Hs578t, MDA-MB-231, SKBr3, ZR75-1
Protocol: as §3

[8] = system: human breast cancer cell lines; experiment: Growth inhibition, Cell Titer Glo, panel of human breast cancer cell lines; assay type: cell-based
Protocol: (§4) The human breast tumor cell lines Hs578t, MCF7, MDA-MB-231, SKBr3, and ZR75-1 were obtained from ATCC (Manassas, VA, USA) and grown in RPMI 1640 media containing L-glutamine, 5% fetal bovine serum, and penicillin/streptomycin at 37 °C in a humidified atmosphere with 5% CO2.
(§5) Growth inhibition was measured using the Promega (Madison, WI, USA) Cell Titer Glo Assay following manufacturer’s specifications. First, 96-well tissue culture treated microtiter plates were seeded at a density of 5000 cells per well and incubated at 37 °C for 24 h prior to drug treatment. After treatment, plates were incubated 72 h prior to assay.

purified ovine COX-1 = molecular target: T2, purified ovine COX-1 (Ovis aries, UniProt P05979); experiment: COX-1 colorimetric activity assay (Cayman kit); assay type: biochemical
T2 construct: purchased Cayman Chemical Company
T2 sequence (P05979 25-600): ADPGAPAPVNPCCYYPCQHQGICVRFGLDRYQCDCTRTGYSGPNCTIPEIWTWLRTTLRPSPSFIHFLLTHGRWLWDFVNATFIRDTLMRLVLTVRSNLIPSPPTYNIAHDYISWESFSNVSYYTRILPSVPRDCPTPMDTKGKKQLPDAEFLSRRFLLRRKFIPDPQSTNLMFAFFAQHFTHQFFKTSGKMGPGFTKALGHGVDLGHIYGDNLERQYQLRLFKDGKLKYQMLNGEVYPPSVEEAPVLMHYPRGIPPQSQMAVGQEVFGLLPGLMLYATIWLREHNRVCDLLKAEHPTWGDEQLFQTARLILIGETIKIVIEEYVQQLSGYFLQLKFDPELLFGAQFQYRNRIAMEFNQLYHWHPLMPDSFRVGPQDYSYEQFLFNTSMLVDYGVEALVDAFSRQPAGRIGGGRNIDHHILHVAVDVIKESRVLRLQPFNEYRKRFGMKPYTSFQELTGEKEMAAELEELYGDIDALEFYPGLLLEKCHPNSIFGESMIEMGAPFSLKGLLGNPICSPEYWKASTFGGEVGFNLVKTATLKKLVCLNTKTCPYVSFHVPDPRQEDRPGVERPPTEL
Protocol: as §2

recombinant PDE5 = molecular target: T3, recombinant PDE5 (Homo sapiens, UniProt O76074); experiment: PDE activity, IMAP fluorescence polarization assay; assay type: biochemical
T3 construct: purchased BPS Biosciences
Protocol: as §1

ZR75-1 = experiment: Growth inhibition, Cell Titer Glo; assay type: cell-based; details: Homo sapiens, ZR-75-1; ZR75-1, 72 h, 2D
Protocol: as §4, §5

Hs578t = experiment: Growth inhibition, Cell Titer Glo; assay type: cell-based; details: Homo sapiens, Hs-578T, 72 h, 2D
Protocol: as §4, §5

SKBr3 = experiment: Growth inhibition, Cell Titer Glo; assay type: cell-based; details: Homo sapiens, SK-BR-3; SKBr3, 72 h, 2D
Protocol: as §4, §5

MCF7 = experiment: Growth inhibition, Cell Titer Glo; assay type: cell-based; details: Homo sapiens; MCF7, 72 h, 2D
Protocol: as §4, §5

MDA-MB-231 = experiment: Growth inhibition, Cell Titer Glo; assay type: cell-based; details: Homo sapiens; MDA-MB-231, 72 h, 2D
Protocol: as §4, §5

[9] = system: human breast cancer cell lines; details: same cell lines and treatment conditions; read-out: IC50 for human breast cancer cell growth (range over cell lines); cited from earlier work

CSc1ccc(/C=C2/C(C)=C(CC(=O)NCCN(C)C)c3cc(F)ccc32)cc1 [SSA, sulindac sulfide amide]
cell growth in 3D HuBiogel [1]: markedly reduced | reduction of Tcf transcriptional activity (Hs578t cells; 5 µM): 14% | reduction of Tcf transcriptional activity (Hs578t cells; 20 µM): 60% | inhibition of cGMP hydrolysis [2]: 38% | inhibition of cGMP hydrolysis [3]: 65% | TUNEL Positive (SKBr3 cells; 10 μM): 2% | TUNEL Positive (SKBr3 cells; 25 μM): 59% | TUNEL Positive (SKBr3 cells; 50 μM): 86% | IC50 (purified ovine COX-2): > 200 µM | intracellular cGMP levels (MDA-MB-231 cells): increased intracellular cGMP levels | change in body weight ([4]; 800 and 1200 ppm in diet, 126-day study): Neither dose of SSA resulted in a significant change | reduction in tumor incidence compared to vehicle control ([4]; 800 ppm in diet): 22% | reduction in tumor multiplicity compared to vehicle control ([4]; 800 ppm in diet): 31% | reduction in tumor incidence compared to vehicle control ([4]; 1200 ppm in diet): 43% | reduction in tumor multiplicity compared to vehicle control ([4]; 1200 ppm in diet): 62% | reduction in the incidence of tumors ([4]; abstract, dose not stated): 57% | reduction in the multiplicity of tumors ([4]; abstract, dose not stated): 62% | toxicity observed in rats ([4]; long-term dietary treatment): no discernable toxicity | plasma levels [5]: exceed the concentrations necessary for SSA to activate cGMP signaling and inhibit growth in breast cancer cells in vitro | VASP phosphorylation at serine 239 (PKG activity marker) ([6]; MDA-MB-231): significantly increased | time of peak VASP phosphorylation ([6]; MDA-MB-231): 1 h | cyclin D1 protein levels ([6]; after 1 h): decreased appreciably | survivin protein levels ([6]; after 7 h): decreased appreciably | caspase activation (MCF7 cells): no increase | increase in activity of caspases 3 and 7 [7]: 2 to 6 fold | IC50 ([8]; Homo sapiens, 72 h treatment, 2D growth, read-out: IC50 for human breast cancer cell growth (range over cell lines)): 3.9 to 7.1 µM | fold more potent than SS in inhibiting growth and inducing apoptosis in breast cancer cells ([8]; vs SS): 10 fold | IC50 (purified ovine COX-1; purified enzyme): 81.6 µM | fold less potent than sulindac sulfide (SS) in inhibiting COX-1 (purified ovine COX-1; vs SS): 68 fold | inhibition at 25 µM (recombinant PDE5): 55% | IC50 (ZR75-1): 7.1 µM | IC50 (Hs578t): 7 µM | IC50 (SKBr3): 3.9 µM | IC50 (MCF7): 7 µM | IC50 (MDA-MB-231): 6.5 µM

CSc1ccc(/C=C2/C(C)=C(CC(=O)O)c3cc(F)ccc32)cc1 [SS, sulindac sulfide]
IC50 [9]: 58.8 to 83.7 µM

— paper PMC9913705, “Novel Non-Cyclooxygenase Inhibitory Derivative of Sulindac Inhibits Breast Cancer Cell Growth In Vitro and Reduces Mammary Tumorigenesis in Rats” (Cancers, 2023)
